Source: patent publication US11142501B2, “Prodrugs of monomethyl fumarate” (IXCHEL PHARMA, LLC, priority 2019, dated 2021)
Structures can show the parent of a compound that is named as a salt.

How the values were obtained:
[1] = Oral (PO) pharmacokinetics study in SD rat; type: in vivo
Experimental: Exemplary compounds of the present invention were subjected to oral (PO) Pharmacokinetics (PK) study in SD rat and data was compared with parent MMF. 6 overnight fasted male SD rats were dosed with MMF dose of 10 mpk and test compounds at the desired dose level of 10 mpk equivalent of MMF by PO route. Dosing vehicle used was MQ water. Blood was collected at different time points by retro orbital route. Plasma samples were stored at −80° C. for LC-MS analysis. Animals were sacrificed post final blood collection. Dosing and collection was done as per the in vivo protocol given below. PK analysis was done using LC-MS (ABI3200). Data analysis was performed using PRISM software to determine PK parameters such Cmax (the maximum (or peak) serum concentration that a drug achieves in a specified compartment or test area of the body after the drug has been administrated and before the administration of a second dose), Tmax (time at which the Cmax is observed) AUC (definite integral in a plot of drug concentration in blood plasma vs. time), MRT (Mean Residence Time) and t1/2 (The time required for one half of the total amount of a particular substance in a biological system to be degraded by biological processes when the rate of removal is nearly exponential)

[2] = Rat plasma conversion (ex-vivo); type: in vitro ADME
[3] = Solubility; type: physicochemical; conditions: water; compared with monomethyl fumarate
[4] = Stability of prodrugs on storage at RT and RF; type: physicochemical; conditions: in % (unit assumed); for Stability, value at 0 DAY: 0 day (14 Nov. 2018), dissolved in acetonitrile for analysis; for Stability, value at 7 DAY, RT / Stability, value at 15 DAY, RT: storage at room temp/25° C.; for Stability, value at 7 DAY, RT / Stability, value at 7 DAY, RF / Stability, value at 15 DAY, RT / Stability, value at 15 DAY, RF: acetonitrile for analysis; for Stability, value at 7 DAY, RF / Stability, value at 15 DAY, RF: storage under refrigeration/4° C.
Experimental: Compounds dissolved in ACN for analysis RT: Room temp/25° C. RF: Refrigeration/4° C.

COC(=O)/C=C/C(=O)OCOC(=O)c1ccc[n+](C)c1.[I-] [SPR11578, (E)-3-((((4-methoxy-4-oxobut-2-enoyl)oxy)methoxy)carbonyl)-1-methylpyridin-1-ium iodide]
conversion in vivo ([1]; in vivo, rat): doesn't convert completely
Rat plasma conversion [2]: doesn't convert completely

COC(=O)/C=C/C(=O)O [MMF, monomethyl fumarate]
Solubility [3]: highly soluble

COC(=O)/C=C/C(=O)OCOC(=O)c1cccnc1 [SPR11577, methyl((nicotinoyloxy) methyl)fumarate]
Rat plasma conversion [2]: convert instantly
Stability, value at 0 DAY [4]: 99.35
Stability, value at 7 DAY, RT [4]: 99.79
Stability, value at 7 DAY, RF [4]: 99.89
Stability, value at 15 DAY, RT [4]: 100
Stability, value at 15 DAY, RF [4]: 100

COC(=O)/C=C/C(=O)OC[n+]1cccc(C(=O)N(C)C)c1.[I-] [SPR11576, (E)-3-(dimethylcarbamoyl)-1-(((4-methoxy-4-oxobut-2-enoyl)oxy)methyl)pyridin-1-ium iodide]
Rat plasma conversion [2]: convert instantly
Stability, value at 0 DAY [4]: 97.68
Stability, value at 7 DAY, RT [4]: 96.97
Stability, value at 7 DAY, RF [4]: 97.7
Stability, value at 15 DAY, RT [4]: 96.28
Stability, value at 15 DAY, RF [4]: 97.82

CNC(=O)c1ccc[n+](COC(=O)/C=C/C(=O)OC)c1.[I-] [SPR11575, (E)-1-(((4-methoxy-4-oxobut-2-enoyl)oxy)methyl)-3-(methylcarbamoyl) pyridin-1-ium iodide]
pharmacokinetics in delivery of monomethyl fumarate (MMF) in comparison with direct administration of MMF ([1]; FIG. 1 legend, in words): enhanced
AUC in rat plasma as compared to the parent drug MMF ([1]; SD rat, PO, in words): better enhanced
T1/2 in rat plasma as compared to the parent drug MMF ([1]; SD rat, PO, in words): better enhanced
Rat plasma conversion [2]: convert instantly
Stability, value at 0 DAY [4]: 97.7
Stability, value at 7 DAY, RT [4]: 97.61
Stability, value at 7 DAY, RF [4]: 97.82
Stability, value at 15 DAY, RT [4]: 97.06
Stability, value at 15 DAY, RF [4]: 97.66

COC(=O)/C=C/C(=O)OC[n+]1cccc(C(N)=O)c1.[I-] [SPR11574, (E)-3-carbamoyl-1-(((4-methoxy-4-oxobut-2-enoyl)oxy)methyl) pyridin-1-ium iodide]
Rat plasma conversion [2]: convert instantly
Stability, value at 0 DAY [4]: 97.81
Stability, value at 7 DAY, RT [4]: 97.61
Stability, value at 7 DAY, RF [4]: 97.61
Stability, value at 15 DAY, RT [4]: 97.21
Stability, value at 15 DAY, RF [4]: 97.95
